Assay results: patent EP4772500A1, “NOVEL ISOXAZOLE COMPOUND AS TM4SF5-SPECIFIC INHIBITOR AND USE THEREOF” (Seoul National University R&DB Foundation, priority 2023, dated 2025)
Each block holds one molecule with its values, some of them ahead of it.

Assays:
TM4SF5 and SLAMF7 = biological target: T1, TM4SF5 and SLAMF7 (Homo sapiens, UniProt O14894); experiment: Streptavidin pulldown: binding between TM4SF5 and SLAMF7; assay type: cell-based
T1 construct: expressed in transfected cells; host or cells: SNU761 human hepatocellular carcinoma cells
T1 sequence (O14894 1-197): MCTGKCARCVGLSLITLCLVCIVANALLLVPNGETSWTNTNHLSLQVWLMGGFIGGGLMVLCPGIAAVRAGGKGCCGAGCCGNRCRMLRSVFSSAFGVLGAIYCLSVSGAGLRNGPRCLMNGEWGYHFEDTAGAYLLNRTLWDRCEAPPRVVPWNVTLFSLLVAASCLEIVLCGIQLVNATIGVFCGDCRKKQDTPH
Method: Cells were cultured to ~60% density in a cell incubator at 37°C and 5% CO2, and then transfected using PEI and cultured in a cell incubator at 37°C for two days. After cultivation, cell extracts were obtained by the method described above. After precipitating a desired protein from the cell extracts using an immunoprecipitation method, the binding proteins were identified by the Western blot technique described above. Specifically, cells cultured in a 100 mm cell culture dish for two days were washed twice with PBS, and protease inhibitor cocktails (GenDepot, USA) were added to 500 µl of immunoprecipitation lysis buffer (0.5% Triton X-100 or Brij 58, 40 mM HEPES, 150 mM NaCl, 1 mM EDTA, pH 7.4), followed by treatment at 4°C for 15 minutes. After collecting the cells, centrifugation was performed at 12,000x g at 4°C for 15 minutes, and the supernatant was transferred to a new microcentrifuge tube to obtain a cell extract. Proteins therein were quantified using a BCA reagent (Thermo Scientifics, USA). An electrophoresis sample was prepared by adding 4x laemmli sample buffer to a portion of the quantified sample and boiling at 100°C for 5 minutes. For immunoprecipitation, Streptavidin Agarose Resin (Thermo Fisher Scientific) or anti-HA antibody-coated Sepharose beads were added in proportion to the quantified protein amount, followed by rotation at 4°C for 4 hours, and then centrifugation was performed at 7,000x g at 4°C for 5 minutes and the supernatant was discarded. […] (f) After treating NK92-EV or NK92-TM4SF5 cells with DMSO or drugs ST-2-001 (1 nM), ST-3-005 (10 nM or 1 µM), ST-5-001, or ST-5-002 (100 nM or 1 µM) for 24 hours, the expression of SLAMF7 expressed on the cell surface was analyzed through immunostaining using flow cytometry. The expression level of SLAMF7 was confirmed by adding a SLAMF7 antibody to bind with SLAMF7 and then measuring the fluorescence linked to the SLAMF7 antibody using flow cytometry. […]

[1] = test system: TM4SF5-expressing cells (SNU449T7); experiment: Subcutaneous xenograft model of TM4SF5-expressing liver cancer cell line; assay type: in vivo, BALB/c-Nude mice; settings: for tumor volume / liver cancer formation inhibitory effect: 5 mg/kg IP every 3 days, 8 times; for tumor volume: vs vehicle (FIG. 11c); for liver cancer formation inhibitory effect: images of recovered cancer tissues (FIG. 11b); for expressions of factors related to fibrosis, inflammation-related cytokines/chemokines (CCL2, CCL5, or CCL20), and AFP: cancer tissues vs vehicle (FIG. 11e); for phosphorylation of FAK, STAT3, c-Src, Akt and p27: liver cancer tissue extracts, three days after last injection (FIG. 11d)
Method: The next day, the cells were detached by treating with a T/E (Trypsin/EDTA) solution and centrifuged at 150x g for 3 minutes to obtain a pellet. Thereafter, the supernatant was removed, and the pellet was prepared by resuspension in phosphate buffered saline (PBS). For the generation of liver cancer, 10^7 cells/100 µl were injected once subcutaneously into the right thigh area of 8-week-old male BALB/c-Nude mice. At this time, the animals were anesthetized by inhalation with […] and injected. From the 7th day after the cell injection, drugs ST-2-001, ST-3-006, and ST-3-011 were each intraperitoneally injected at 5 mg/kg of body weight for a total of 8 times every 3 days. The body weight of the animals was measured every week from the day of cell injection, and the tumor volume was measured every 3 days from the 7th day after the cell injection. The tumor volume was calculated as (length×width×width)/2 (mm^3) by measuring the length and width of the tumor. Finally, on the 31st day after the cell injection, the animals were sacrificed by a standard method, and liver tissues were obtained to analyze the liver cancer tissues.
Eight-week-old male BALB/c-Nude mice (n=8, Orient, Seongnam, Republic of Korea) were allowed free access to a normal diet, and TM4SF5-non-expressing cells (SNU449Cp) and TM4SF5-expressing cells (SNU449T7) were injected once subcutaneously at a dose of 10^7 cells per mouse. Starting from the 7th day after the cell injection, drug ST-2-001, ST-3-006, or ST-3-011 was intraperitoneally injected at 5 mg/kg of body weight every 3 days for a total of 8 times. Body weight and tumor volume were measured every week, and on the 31st day after the cell injection, the mice were anesthetized by a standard method, liver tissues were obtained, and the size of the liver cancer tissues was photographed. Thereafter, the tissues were randomly divided into several sets and analyzed by immunohistochemistry, Western blot, qRT-PCR, etc.

[2] = SNU761 expressing TM4SF5-Strep and FLAG-SLAMF7, 24 hours, brij58 lysis (FIG. 15e-f)

binding between TM4SF5 and SLAMF7 (TM4SF5 and SLAMF7; [2]): decreased
Compound: Cc1ccc(C(=O)Nc2ccc(-c3cc(-c4ccc(O)cc4)no3)cc2)cc1 [ST-5-002, N-(4-(3-(4-hydroxyphenyl)isoxazole-5-yl)phenyl)-4-methylbenzamide]

Compound: COc1ccc(-c2cc(-c3cccc(NC(C)=O)c3)no2)cc1 [ST-3-011, N-(3-(5-(4-methoxyphenyl)isoxazole-3-yl)phenyl)acetamide]
tumor volume [1]: statistically significantly inhibited | liver cancer formation inhibitory effect [1]: relatively less than those of ST-2-001 | expressions of factors related to fibrosis, inflammation-related cytokines/chemokines (CCL2, CCL5, or CCL20), and AFP [1]: decreased | phosphorylation of FAK, STAT3, c-Src, Akt and p27 [1]: significantly inhibited

Compound: COc1cccc(-c2cc(-c3ccc(NC(C)=O)cc3)no2)c1 [ST-3-001, N-(4-(5-(3-methoxyphenyl)isoxazole-3-yl)phenyl)acetamide]
binding between TM4SF5 and SLAMF7 (TM4SF5 and SLAMF7; [2]): did not decrease but rather showed an increasing trend

binding between TM4SF5 and SLAMF7 (TM4SF5 and SLAMF7; 2.5 µM, 24 hours, SNU761 (FIG. 13j)): inhibited
Compound: CC(=O)Nc1ccc(-c2cc(-c3ccc(O)cc3)no2)cc1 [ST-5-001, N-(4-(3-(4-hydroxyphenyl)isoxazole-5-yl)phenyl)acetamide]

Compound: COc1ccc(-c2cc(-c3ccc(NC(C)=O)cc3)no2)cc1 [ST-2-001, N-(4-(5-(4-methoxyphenyl)isoxazole-3-yl)phenyl)acetamide]
tumor volume [1]: statistically significantly inhibited | liver cancer formation inhibitory effect [1]: the greatest | expressions of factors related to fibrosis, inflammation-related cytokines/chemokines (CCL2, CCL5, or CCL20), and AFP [1]: decreased | phosphorylation of FAK, STAT3, c-Src, Akt and p27 [1]: significantly inhibited

Compound: CC(=O)Nc1ccc(-c2cc(-c3ccc(F)cc3)on2)cc1 [ST-3-006, N-(4-(5-(4-fluorophenyl)isoxazole-3-yl)phenyl)acetamide]
tumor volume [1]: statistically significantly inhibited | liver cancer formation inhibitory effect [1]: relatively less than those of ST-2-001 | expressions of factors related to fibrosis, inflammation-related cytokines/chemokines (CCL2, CCL5, or CCL20), and AFP [1]: decreased | phosphorylation of FAK, STAT3, c-Src, Akt and p27 [1]: significantly inhibited
